Literature values as cited in paper PMC7931078 (Molecules, 2021).
Converted amounts (≈) assume the structure as drawn.

System: Mtb
Set-up: method as in PMID 29487031
Conditions: first line treatment regimen; cited from earlier work

## CC[C@@H](CO)NCCN[C@@H](CC)CO [ethambutol]
  MIC: 15 µM (≈ 3.06 µg/mL)
